By EC50 is commonly meant the concentration giving half of the maximal effect. Usually IC50 stands for the concentration that inhibits the measured activity by half. The Kp is tissue or fluid exposure divided by exposure in the circulation.

From ChEMBL document CHEMBL4138139, “Discovery of VU6005649, a CNS Penetrant mGlu7/8 Receptor PAM Derived from a Series of Pyrazolo[1,5-a]pyrimidines” (ACS Med Chem Lett, 2017) come the findings set out here.

The target of series [1] is T1, Metabotropic glutamate receptor 7 (Rattus norvegicus, UniProt P35400). Kind of series: Positive allosteric modulation of rat mGlu7 receptor expressed in HEK cells co-expressing Galphai5 assessed as increase in glutamate-induced calcium flux incubated for 142 secs followed by glutamate addition measured after 120 secs by Fluo4-AM dye based fluorescence assay. Format: functional, cell-based. On the technique in general: Calcium flux is commonly read through the fluorescence of an indicator in the cells.
T1 sequence (P35400 whole entry): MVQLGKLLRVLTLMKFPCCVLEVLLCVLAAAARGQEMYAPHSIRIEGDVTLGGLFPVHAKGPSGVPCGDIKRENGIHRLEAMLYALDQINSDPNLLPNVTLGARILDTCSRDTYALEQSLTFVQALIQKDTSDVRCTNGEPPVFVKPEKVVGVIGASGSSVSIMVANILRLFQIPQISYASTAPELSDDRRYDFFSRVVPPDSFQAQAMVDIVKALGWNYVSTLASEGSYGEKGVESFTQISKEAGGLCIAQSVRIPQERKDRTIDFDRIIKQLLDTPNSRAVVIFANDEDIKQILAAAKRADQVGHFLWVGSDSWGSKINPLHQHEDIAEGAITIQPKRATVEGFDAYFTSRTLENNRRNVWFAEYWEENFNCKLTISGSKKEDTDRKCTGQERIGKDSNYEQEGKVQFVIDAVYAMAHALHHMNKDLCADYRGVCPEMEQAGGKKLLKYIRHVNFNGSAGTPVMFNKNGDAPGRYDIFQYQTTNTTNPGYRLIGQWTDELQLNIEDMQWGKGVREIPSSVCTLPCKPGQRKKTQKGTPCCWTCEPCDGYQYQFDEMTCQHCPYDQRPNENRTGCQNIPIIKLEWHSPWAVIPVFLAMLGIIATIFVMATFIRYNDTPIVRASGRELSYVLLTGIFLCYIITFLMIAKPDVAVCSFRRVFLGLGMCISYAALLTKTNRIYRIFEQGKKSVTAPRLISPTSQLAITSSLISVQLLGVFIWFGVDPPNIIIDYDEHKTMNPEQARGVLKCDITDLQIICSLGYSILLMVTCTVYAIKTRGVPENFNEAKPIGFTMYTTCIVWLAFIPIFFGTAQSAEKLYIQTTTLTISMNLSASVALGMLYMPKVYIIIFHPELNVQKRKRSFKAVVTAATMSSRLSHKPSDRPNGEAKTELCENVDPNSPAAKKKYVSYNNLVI

For series [2], the target named is T2, Metabotropic glutamate receptor 8 (Rattus norvegicus, UniProt P70579). Kind of series: Positive allosteric modulation of rat mGlu8 receptor expressed in HEK cells co-expressing Galphai5 assessed as increase in glutamate-induced calcium flux incubated for 142 secs followed by glutamate addition measured after 120 secs by Fluo4-AM dye based fluorescence assay. The format is functional, cell-based.
T2 sequence (P70579 whole entry): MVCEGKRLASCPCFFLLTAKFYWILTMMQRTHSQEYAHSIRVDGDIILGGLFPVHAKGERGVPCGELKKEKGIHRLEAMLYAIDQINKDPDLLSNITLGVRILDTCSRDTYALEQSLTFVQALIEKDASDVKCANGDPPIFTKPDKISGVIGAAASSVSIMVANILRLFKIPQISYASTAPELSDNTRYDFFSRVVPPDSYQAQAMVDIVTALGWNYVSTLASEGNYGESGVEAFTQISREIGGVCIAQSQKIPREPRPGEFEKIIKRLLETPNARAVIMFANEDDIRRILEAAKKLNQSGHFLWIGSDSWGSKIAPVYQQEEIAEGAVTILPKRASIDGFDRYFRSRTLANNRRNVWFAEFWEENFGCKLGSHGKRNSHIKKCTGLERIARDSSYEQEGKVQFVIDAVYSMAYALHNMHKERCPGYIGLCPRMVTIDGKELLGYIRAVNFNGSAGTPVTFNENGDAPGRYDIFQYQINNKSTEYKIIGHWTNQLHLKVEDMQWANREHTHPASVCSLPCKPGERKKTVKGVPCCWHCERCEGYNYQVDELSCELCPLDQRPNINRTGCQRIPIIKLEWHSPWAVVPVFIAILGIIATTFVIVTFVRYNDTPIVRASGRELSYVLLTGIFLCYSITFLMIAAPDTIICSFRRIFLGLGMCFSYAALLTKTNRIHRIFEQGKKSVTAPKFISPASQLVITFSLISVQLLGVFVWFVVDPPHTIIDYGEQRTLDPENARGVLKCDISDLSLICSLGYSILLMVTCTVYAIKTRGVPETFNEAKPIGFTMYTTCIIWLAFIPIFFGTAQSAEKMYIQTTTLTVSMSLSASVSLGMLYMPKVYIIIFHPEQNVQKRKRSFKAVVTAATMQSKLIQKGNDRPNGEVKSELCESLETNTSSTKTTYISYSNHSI

Series [3] concerns the target T3, Metabotropic glutamate receptor 4 (Homo sapiens, UniProt Q14833). Kind of series: Positive allosteric modulation of human mGlu4 receptor expressed in CHO cells co-expressing Gqi5 assessed as increase in glutamate-induced calcium mobilization incubated for 142 secs followed by glutamate addition measured after 120 secs by Fluo4-AM dye based fluorescence assay. The format is functional, cell-based.

Series [4] concerns the target T1, Metabotropic glutamate receptor 7. Kind of series: Negative allosteric modulation of rat mGlu7 receptor expressed in HEK cells co-expressing Galphai5 assessed as decrease in glutamate-induced thallium flux incubated for 142 secs followed by glutamate addition measured after 120 secs by Fluo4-AM dye based fluorescence assay. The format is functional, cell-based.

Series [5] deals with T2, Metabotropic glutamate receptor 8. Kind of series: Negative allosteric modulation of rat mGlu8 receptor expressed in HEK cells co-expressing Galphai5 assessed as decrease in glutamate-induced thallium flux incubated for 142 secs followed by glutamate addition measured after 120 secs by Fluo4-AM dye based fluorescence assay. Format: functional, cell-based.
Series [6] concerns the target T3, Metabotropic glutamate receptor 4. Kind of series: Negative allosteric modulation of human mGlu4 receptor expressed in CHO cells co-expressing Gqi5 harboring GIRK channel assessed as decrease in glutamate-induced thallium flux incubated for 142 secs followed by glutamate addition measured after 120 secs by Fluo4-AM dye based fluorescence assay. Format: functional, cell-based.

Series [7] in a line: Unbound brain to plasma concentration ratio in Sprague-Dawley rat at 0.2 to […], iv administered as cassette dose measured at […] post dose by LC-MS/MS analysis. Format: ADME, organism-based. The following applies: brain and plasma, read-out: K(p,uu,brain).
Series [8] can be described thus: Brain to plasma partition coefficient, Kp of the compound in Sprague-Dawley rat at 0.2 to […], iv administered as cassette dose measured at […] post dose by LC-MS/MS analysis. Format: ADME, organism-based. The following applies: brain and plasma.
The target in series [9] is Cytochrome P450 2C9 (Homo sapiens, UniProt P11712). Briefly: Inhibition of CYP2C9 in human liver microsomes using diclofenac as substrate preincubated for 15 mins followed by NADPH addition measured after 8 mins by LC-MS/MS analysis. Format: ADME. Background: Microsomes from liver hold many membrane-bound enzymes, among them those of drug oxidation.
Cytochrome P450 2C9, sequence (P11712 whole entry): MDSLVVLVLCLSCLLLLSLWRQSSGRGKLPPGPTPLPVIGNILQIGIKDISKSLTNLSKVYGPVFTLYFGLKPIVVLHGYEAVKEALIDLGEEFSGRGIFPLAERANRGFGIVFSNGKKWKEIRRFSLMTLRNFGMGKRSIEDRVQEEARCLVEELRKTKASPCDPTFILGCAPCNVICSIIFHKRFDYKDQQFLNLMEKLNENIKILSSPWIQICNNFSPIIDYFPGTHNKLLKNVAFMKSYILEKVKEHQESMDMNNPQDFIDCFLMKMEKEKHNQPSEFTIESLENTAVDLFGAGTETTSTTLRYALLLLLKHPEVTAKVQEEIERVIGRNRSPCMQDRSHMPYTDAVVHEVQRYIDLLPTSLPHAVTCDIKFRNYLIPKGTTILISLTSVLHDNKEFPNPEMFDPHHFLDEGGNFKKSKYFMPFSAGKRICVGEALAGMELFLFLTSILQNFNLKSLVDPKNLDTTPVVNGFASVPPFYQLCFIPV
For series [10], the target named is T4, Cytochrome P450 1A2 (Homo sapiens, UniProt P05177).
T4 sequence (P05177 whole entry): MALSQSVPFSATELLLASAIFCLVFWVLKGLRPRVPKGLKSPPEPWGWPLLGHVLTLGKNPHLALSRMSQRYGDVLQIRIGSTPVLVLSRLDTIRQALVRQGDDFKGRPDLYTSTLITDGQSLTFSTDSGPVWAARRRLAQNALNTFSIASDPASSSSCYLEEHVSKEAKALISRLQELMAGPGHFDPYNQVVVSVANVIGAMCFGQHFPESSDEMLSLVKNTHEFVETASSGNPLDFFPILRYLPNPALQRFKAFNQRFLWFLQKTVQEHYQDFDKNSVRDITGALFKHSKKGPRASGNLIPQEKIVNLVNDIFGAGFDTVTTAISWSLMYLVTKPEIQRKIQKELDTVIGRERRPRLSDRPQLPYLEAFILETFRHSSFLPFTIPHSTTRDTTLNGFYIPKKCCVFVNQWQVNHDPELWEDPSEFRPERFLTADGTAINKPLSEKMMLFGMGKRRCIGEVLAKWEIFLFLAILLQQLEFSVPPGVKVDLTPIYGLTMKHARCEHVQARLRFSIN
Briefly: Inhibition of CYP1A2 in human liver microsomes using phenacetin as substrate preincubated for 15 mins followed by NADPH addition measured after 8 mins by LC-MS/MS analysis. The format is ADME.

Series [11] addresses Cytochrome P450 3A4 (Homo sapiens, UniProt P08684). Briefly: Inhibition of CYP3A4 in human liver microsomes using midazolam as substrate preincubated for 15 mins followed by NADPH addition measured after 8 mins by LC-MS/MS analysis. Format: ADME.
For series [12], the target named is Cytochrome P450 2D6 (Homo sapiens, UniProt P10635). Kind of series: Inhibition of CYP2D6 in human liver microsomes using dextromethorphan as substrate preincubated for 15 mins followed by NADPH addition measured after 8 mins by LC-MS/MS analysis. Format: ADME.
Cytochrome P450 2D6, sequence (P10635 whole entry): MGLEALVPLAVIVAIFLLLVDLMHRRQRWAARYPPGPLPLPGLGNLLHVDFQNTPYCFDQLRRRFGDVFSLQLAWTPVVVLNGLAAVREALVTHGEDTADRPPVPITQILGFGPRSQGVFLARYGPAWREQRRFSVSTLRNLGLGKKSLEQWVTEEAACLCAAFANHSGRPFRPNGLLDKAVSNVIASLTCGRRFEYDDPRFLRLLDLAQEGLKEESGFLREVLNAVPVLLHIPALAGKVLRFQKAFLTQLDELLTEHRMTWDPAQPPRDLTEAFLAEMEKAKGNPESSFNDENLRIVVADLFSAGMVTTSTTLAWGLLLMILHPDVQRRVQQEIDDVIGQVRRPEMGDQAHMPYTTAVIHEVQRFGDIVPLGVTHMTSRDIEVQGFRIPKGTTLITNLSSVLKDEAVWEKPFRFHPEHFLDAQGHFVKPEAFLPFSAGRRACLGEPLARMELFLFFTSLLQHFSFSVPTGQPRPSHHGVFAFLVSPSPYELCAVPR

Cytochrome P450 3A4, sequence (P08684 whole entry): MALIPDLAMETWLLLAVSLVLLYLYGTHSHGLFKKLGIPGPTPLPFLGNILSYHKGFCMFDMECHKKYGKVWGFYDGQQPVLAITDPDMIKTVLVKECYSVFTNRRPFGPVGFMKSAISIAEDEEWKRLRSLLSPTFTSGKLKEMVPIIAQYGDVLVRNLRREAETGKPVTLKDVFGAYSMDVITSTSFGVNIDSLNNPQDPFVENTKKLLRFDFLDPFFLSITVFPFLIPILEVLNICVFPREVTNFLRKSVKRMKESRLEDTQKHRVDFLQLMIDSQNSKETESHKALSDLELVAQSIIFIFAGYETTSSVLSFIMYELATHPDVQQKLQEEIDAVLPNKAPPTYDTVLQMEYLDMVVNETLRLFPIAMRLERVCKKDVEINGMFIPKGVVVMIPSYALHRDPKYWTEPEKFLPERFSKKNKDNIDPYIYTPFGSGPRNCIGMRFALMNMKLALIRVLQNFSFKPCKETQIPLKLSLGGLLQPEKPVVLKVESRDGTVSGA
T3 sequence (Q14833 whole entry): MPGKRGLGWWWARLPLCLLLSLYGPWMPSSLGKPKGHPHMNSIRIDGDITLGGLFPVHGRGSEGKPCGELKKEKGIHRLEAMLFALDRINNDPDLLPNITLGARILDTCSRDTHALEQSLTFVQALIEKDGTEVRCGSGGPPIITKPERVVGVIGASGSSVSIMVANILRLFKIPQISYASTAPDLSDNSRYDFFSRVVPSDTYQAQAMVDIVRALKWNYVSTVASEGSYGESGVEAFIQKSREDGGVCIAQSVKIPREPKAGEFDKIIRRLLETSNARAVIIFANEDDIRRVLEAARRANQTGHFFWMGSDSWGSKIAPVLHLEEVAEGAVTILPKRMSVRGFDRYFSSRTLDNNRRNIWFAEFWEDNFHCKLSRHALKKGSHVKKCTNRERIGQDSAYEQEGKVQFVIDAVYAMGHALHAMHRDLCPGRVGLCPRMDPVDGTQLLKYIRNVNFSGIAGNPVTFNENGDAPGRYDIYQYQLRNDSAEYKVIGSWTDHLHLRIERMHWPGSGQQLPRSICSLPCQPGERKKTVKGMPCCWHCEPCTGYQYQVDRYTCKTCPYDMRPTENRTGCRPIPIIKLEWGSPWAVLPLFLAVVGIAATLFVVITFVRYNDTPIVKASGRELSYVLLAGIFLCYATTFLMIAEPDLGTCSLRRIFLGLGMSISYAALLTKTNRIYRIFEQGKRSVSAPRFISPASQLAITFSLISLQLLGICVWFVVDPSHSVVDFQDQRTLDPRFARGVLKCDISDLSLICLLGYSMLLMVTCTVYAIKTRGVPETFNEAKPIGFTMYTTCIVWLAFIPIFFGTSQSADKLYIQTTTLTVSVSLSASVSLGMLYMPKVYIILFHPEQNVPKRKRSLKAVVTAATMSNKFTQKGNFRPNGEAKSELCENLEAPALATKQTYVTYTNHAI

`COC(=O)c1ccc(-n2c(C)cc(C(=O)CSc3ccc(NC(C)=O)cc3)c2C)cc1`: the EC50 in series [1] came out at 1.5 µM; in series [2], 0.9 µM; in series [3] it was 3.2 µM.
On to `CCc1nc2c(o1)CC(c1ccc(C)cc1C)CC2=O` (configuration not stated), for which the IC50 was 0.65 µM in series [4], > 10 µM in series [5] and > 10 µM in [6].
Regarding `Cc1cc(C(F)(F)F)n2nc(C)c(-c3ccc(OC(F)F)cc3)c2n1`, the Kp uu at […] in series [7] was determined as 0.8. This molecule gave a Kp at […] in [8] of 1.5.
`COc1ccc(-c2c(C)nn3c(C(F)(F)F)cc(C)nc23)cc1F`: the IC50 is 27 µM in series [9], 0.33 µM in series [10], > 30 µM in series [11] and > 30 µM in series [12]. In [8], this molecule registered a Kp at […] of 4.3.
Turning to `COc1cc(F)c(-c2c(C)nn3c(C(F)(F)F)cc(C)nc23)c(F)c1`, the IC50 was > 30 µM in series [9], 8.67 µM in series [10], > 30 µM in series [11] and > 30 µM in series [12]. Moreover, the Kp at […] in series [8] stood at 2.2.
As for `COc1cc(F)c(-c2c(C)nn3c(C(F)(F)F)cc(C)nc23)cc1F`, the IC50 in [9] was > 30 µM; in series [10], 2.93 µM; in series [11], > 30 µM; in series [12] it was > 30 µM. The Kp at […] in [8] is 2.7.
Consider `COc1ccc(-c2c(C)nn3c(C(F)(F)F)cc(C)nc23)cc1`, for which the IC50 in series [9] was > 30 µM; in series [10] it was 0.69 µM; in series [11] it was > 30 µM; in series [12] it was > 30 µM. Further, in series [8], the Kp at […] came to 1.4.
`COc1ccc(-c2c(C)nn3c(C(F)(F)F)cc(C)nc23)c(F)c1`: the Kp uu at […] in series [7] was determined as 0.9. Moreover, the Kp at […] in [8] was found to be 1.4.
Take `COc1ccc(-c2c(C)nn3c(C(F)(F)F)cc(C)nc23)cc1Cl`: in [7], the Kp uu at […] was 1.7. Also, the concentration ratio (Kp) at […] in series [8] was 4.8.
